Measurements reported in patent publication US20130196935A1, “SYNTHETIC GLYCOAMINE COMPOUNDS” (ANIMAL CELL THERAPIES INC., priority 2012, published 2013).
Several values for one entry are separate records, joined by “and”; a condition that tells them apart may be missing. Equal values may be shown once.

Assays:
SVR cells [1] = test: Clonogenic survival (colony formation) of SVR cells; assay type: cell-based; conditions: for Colony # (single well): 200 SVR cells per well; for Colony # Average: average of 4 wells; for inhibition of colony formation compared to the control: two-tailed t-test; for inhibition of SVR cell colony formation: concentrations 1 mM and higher, compared to control
Experimental: 1. Testing concentrations of ACT-1 and ACT-2: 1 mM, 500 μM, 250 μM, 125 μM, and 62.5 μM. 2. Prepared 2 mM ACT-1=0.91 mg/mL and 2 mM ACT-2=0.91 mg/mL in SVR complete culture medium. Sterilized the test article solutions by filtering through 0.2 μm syringe filters (Whatman Puradisc 25 mm, Cat #6780-2502). 3. Prepared solutions in 2× testing concentrations (2 mM, 1 mM, 500 μM, 250 μM, 125 μM and 62.5 μM) by preparing 2× dilution from 2 mM stock solution (mixing 2.4 mL culture medium with 2.4 mL of 2 mM solution, and make serial 2× dilutions the same way). 4. Pipetted 0.5 mL of test articles to 24-well plates according to the layout below (ACT-1 in one plate and ACT-2 in another plate). Each concentration will be tested in quadruplicate.
5. Trypsinized SVR cells (P1) and prepared 400 cells/mL solution in culture medium. Pipetted 0.5 mL cell solution to each well (200 cells/well). Mixed well by gentle pipetting. 6. Cultured cells at 37° C. incubator for 6 days. 7. Aspirated medium from the wells. Rinsed cells once with 1 mL of PBS (LONZA, Cat #: 17-516Q). 8. Fixed cells with 0.5 mL of freshly prepared 4% paraformaldehyde (PFA) (1:8 dilution of 32% PFA solution in PBS; 32% PFA solution: Electron Microscopy Sciences Cat #:15714) in PBS at RT for 20 min. Removed PFA and washed cells once with 1 mL PBS. 9. Stained cells with 0.3 mL of Mayer's hematoxylin solution (Sigma Cat#: MHS1-100ML) at RT for 15 min. Removed hematoxylin solution and rinsed cells twice with 1 mL of warm tap water. 10. Counted cell colonies under microscope with 40× magnification (divide the wells with makers into 4 sections. Count the numbers of colonies from each section and add the numbers to yield the final colony numbers).
1. Testing concentrations of ACT-1 and ACT-2: 4 mM, 2 mM, 1 mM, and 0.5 mM. 2. The experimental procedures were the same as in Experiment 1-1, except that the total volume in each well was 0.6 mL (0.3 mL of 2× concentrated test articles and 0.3 mL of 667 cells/mL cell solution).
3. Cultured cells at 37° C. incubator for 6 days. 4. Visualized the cell colonies by staining with hematoxylin as described above. 5. Counted the colonies under microscope.

[2] = tested on: primary bovine aortic endothelial cells (BAEC); test: MTS cytotoxicity assay on primary BAEC; assay type: cell-based; conditions: 0.125-8 mM, 48 hours
Experimental: (§1) 1. Testing concentrations of ACT-1 and ACT-2: 8 mM, 4 mM, 2 mM, 1 mM, 0.5 mM, 0.25 mM and 0.125 mM. 2. Trypsinized exponentially growing BAECs (P1) and SVR cells (P4), and prepared 5×10^4 cells/mL cell solution for BAECs and […] for SVR cells. Add 100 μl of cell solution to 96-well plates to achieve 5,000 cells/well for BAECs and 1,000 cells/well for SVR cells. Incubated cells at 37° C. overnight. 3. Prepared 8 mM=3.64 mg/mL and 8 mM ACT-2=3.62 mg/mL in BAEC complete culture medium. Sterilized the drug solutions by filtering through 0.2 μm syringe filters. 4. Prepared 2× serial dilutions from 8 mM stock solution by mixing 0.6 mL drug solution with 0.6 mL culture medium. 5. Aspirated medium from wells and added 80 μl of test article solutions to the wells according to the layout below.
(§2) 6. Incubated cells at 37° C. for 48 hours. 7. Aspirated the medium from wells and added fresh 70 μl culture medium to the wells. 8. Prepared MTS reagent (Promega CellTiter 96 Aqueous MTS assay reagents, Cat #G5421) by mixing 2.4 mL MTS, 120 μl PMS and 3.779 mL culture medium. Added 50 μl MTS assay reagent to the wells using a multiple channel pipette. 9. Incubate at 37° C. for 2 hours. Read absorbance at 490 nm using a plate reader.

[3] = MTS cytotoxicity assay on primary BAEC; assay type: cell-based, bovine; conditions: bovine, primary bovine aortic endothelial cells (BAEC), read-out: Viability of BAEC cells compared to control, Ave (%)
Experimental: as §1, §2

SVR cells [4] = test: MTS cytotoxicity assay on SVR cells; assay type: cell-based; conditions: for significance level P, cytotoxic effect on SVR cells compared to the control: 8 mM, two-tailed t-test; for cytotoxic effect on SVR cells: only at 8 mM, 48 hours, MTS
Experimental: as §1, §2

SVR cells [5] = test: TUNEL assay, apoptosis induction of SVR cells; assay type: cell-based; conditions: 2 mM, 24 hours
Experimental: 1. Testing concentrations of ACT-1 and ACT-2: 2 mM. 2. Prepared 4 mM ACT-1=1.82 mg/mL and 4 mM ACT-2=1.81 mg/mL in complete culture medium. Sterilized the drug solutions by filtering through 0.2 μm syringe filters. 3. Added 100 μl of test articles or culture medium to 4 wells for each ACT-1 and ACT-2 in a 96-well plate. Added 100 μl of culture medium to 5 wells (for non-treated and DNase treatment controls). 4. Trypsinized SVR cells (P3) and prepared 5×10^3 cells/mL solution in culture medium. Added 100 μl of cell solution to each well (500 cells/well). Mixed well by gentle pipetting. 5. Incubated at 37° C. for 24 hours. 6. Removed medium and added 100 μl of 4% PFA in PBS to the wells. Incubated at room temperature for 15 min. 7. Removed PFA solution and 100 μl of permeabilization reagent (0.25% Triton X-100 in PBS) (Triton X-100: Sigma Cat #: T8787-100ML). Incubated at room temperature for 20 min. Washed twice with deionized water. 8. TUNEL reaction was then carried out exactly as the protocol provided by the kit (Invitrogen Click-iT TUNEL Alexa Fluor Imaging Assay Kit, Cat #: C10245). Treated one well (culture medium control) with DNase as positive control for the TUNEL reaction. The reaction volume for each well was 50 μl. 9. After TdT and Click-iT reactions, DNA was stained with Hoechst 33342 (provided by the kit) 1:5,000 in PBS at RT for 15 min. Washed wells three times with PBS. 10. […]

[6] = Experiment A, 62.5 μM, six days after treatment
[7] = Experiment A, 62.5 μM, six days
[8] = Experiment A, 125 μM, six days after treatment
[9] = Experiment A, 250 μM, six days after treatment
[10] = Experiment A, 500 μM, six days after treatment
[11] = Experiment A, 1000 μM, six days after treatment
[12] = Experiment A, 1000 μM, six days
[13] = Experiment B (higher concentrations), 0.5 mM, six days
[14] = Experiment B (higher concentrations), 1 mM, six days
[15] = Experiment B (higher concentrations), 2 mM, six days
[16] = Experiment B (higher concentrations), 4 mM, six days

Row | SMILES | Colony # (single well) (SVR cells [1]; [6]) | Colony # Average (SVR cells [1]; [7]) | Colony # (single well) (SVR cells [1]; [8]) | Colony # Average (SVR cells [1]; Experiment A, 125 μM, six days) | Colony # (single well) (SVR cells [1]; [9]) | Colony # Average (SVR cells [1]; Experiment A, 250 μM, six days) | Colony # (single well) (SVR cells [1]; [10]) | Colony # Average (SVR cells [1]; Experiment A, 500 μM, six days) | Colony # (single well) (SVR cells [1]; [11]) | Colony # Average (SVR cells [1]; [12]) | Colony # (single well) (SVR cells [1]; [13]) | Colony # (single well) (SVR cells [1]; [14]) | Colony # (single well) (SVR cells [1]; [15]) | Colony # (single well) (SVR cells [1]; [16]) | Colony # Average (SVR cells [1]; Experiment B, 0.5 mM, six days) | Colony # Average (SVR cells [1]; Experiment B, 1 mM, six days) | Colony # Average (SVR cells [1]; Experiment B, 2 mM, six days) | Colony # Average (SVR cells [1]; Experiment B, 4 mM, six days) | inhibition of SVR cell colony formation (SVR cells [1]; Experiment B) | cytotoxic effect on primary BAECs [2] | other results
1 | CC(C)CC(NC[C@@]1(O)OC[C@@H](O)[C@@H](O[C@@H]2O[C@H](CO)[C@H](O)[C@H](O)[C@H]2O)[C@@H]1O)C(=O)O (stereo in doubt) [ACT-1] | 43 and 42 and 41 and 39 | 41.3 | 44 and 41 and 39 | 40.8 | 43 and 40 and 41 and 34 | 39.5 | 42 and 41 and 33 | 39.3 | 34 and 32 | 33.0 | 40 and 45 and 35 | 38 and 32 and 33 and 34 | 1 and 2 | 0 | 40.0 | 34.3 | 1.8 | 0.0 | inhibited SVR cell colony formation | did not show significant cytotoxic effect | inhibition of colony formation compared to the control (SVR cells [1]; Experiment A, 1 mM): significant inhibition of colony formation; viability at 48 h, 0.125 mM [3]: 104%; viability at 48 h, 0.25 mM [3]: 112%; viability at 48 h, 0.5 mM [3]: 118%; viability at 48 h, 1 mM [3]: 126%; viability at 48 h, 2 mM [3]: 122%; viability at 48 h, 4 mM [3]: 112%; viability at 48 h, 8 mM [3]: 99.4%; significance level P, cytotoxic effect on SVR cells compared to the control (SVR cells [4]): 0.016; cytotoxic effect on SVR cells (SVR cells [4]): significant cytotoxic effect; TUNEL nuclear staining (apoptosis induction) (SVR cells [5]): nuclear staining was not observed
2 | O=C(O)[C@H](CC1CC1)NC[C@@]1(O)OC[C@@H](O)[C@@H](O[C@@H]2O[C@H](CO)[C@H](O)[C@H](O)[C@H]2O)[C@@H]1O [ACT-2] | 49 and 51 and 43 and 48 | 47.8 | 44 and 42 and 39 | 41.8 | 50 and 44 and 39 and 37 | 42.5 | 39 and 31 and 33 and 35 | 34.5 | 33 and 36 and 39 and 28 | 34.0 | 38 and 34 and 40 and 31 | 13 and 23 and 19 and 16 | 0 | 0 | 35.8 | 17.8 | 0.0 | 0.0 | inhibited SVR cell colony formation | did not show significant cytotoxic effect | inhibition of colony formation compared to the control (SVR cells [1]; Experiment A, 0.5 mM): significant inhibition of colony formation; viability at 48 h, 0.125 mM [3]: 107%; viability at 48 h, 0.25 mM [3]: 133%; viability at 48 h, 0.5 mM [3]: 136%; viability at 48 h, 1 mM [3]: 132%; viability at 48 h, 2 mM [3]: 133%; viability at 48 h, 4 mM [3]: 118%; viability at 48 h, 8 mM [3]: 106%; significance level P, cytotoxic effect on SVR cells compared to the control (SVR cells [4]): 0.018; cytotoxic effect on SVR cells (SVR cells [4]): significant cytotoxic effect; TUNEL nuclear staining (apoptosis induction) (SVR cells [5]): nuclear staining was not observed
